Values of other authors as cited in patent US20090062282A1, “Substituted Amino-Pyrimidones and Uses Thereof” (AstraZeneca AB, priority 2004, published 2009).
Square brackets hold non-standard residues; d marks the D form. Peptide text beside a SMILES is read from it. * marks the point of attachment. Sta = CC(C)C[C@H](N)[C@@H](O)CC(=O)O; Isovaleryl = CC(C)CC(=O)*

Biological target: BACE (Homo sapiens, UniProt P56817)
Sequence (P56817 46-501): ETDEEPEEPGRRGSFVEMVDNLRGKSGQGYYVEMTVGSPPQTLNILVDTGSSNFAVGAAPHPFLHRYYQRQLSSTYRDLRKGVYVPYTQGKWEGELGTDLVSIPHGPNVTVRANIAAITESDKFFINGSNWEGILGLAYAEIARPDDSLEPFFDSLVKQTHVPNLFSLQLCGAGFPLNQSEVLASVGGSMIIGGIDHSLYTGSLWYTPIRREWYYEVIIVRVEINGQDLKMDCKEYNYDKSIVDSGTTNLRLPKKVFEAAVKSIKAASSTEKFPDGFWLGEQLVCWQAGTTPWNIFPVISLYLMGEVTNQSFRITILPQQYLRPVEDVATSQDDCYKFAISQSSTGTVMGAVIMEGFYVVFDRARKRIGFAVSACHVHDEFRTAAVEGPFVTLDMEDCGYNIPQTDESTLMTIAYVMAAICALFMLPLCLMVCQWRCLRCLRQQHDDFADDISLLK

CC(C)CC(=O)N[C@H](C(=O)N[C@H](C(=O)N[C@@H](CC(C)C)[C@@H](O)CC(=O)N[C@@H](C)C(=O)N[C@@H](CC(C)C)[C@@H](O)CC(=O)O)C(C)C)C(C)C [pepstatin] (Isovaleryl-VV[Sta]A[Sta]-OH)
inhibition of BACE: inhibited weakly
